Assay results as given in US20150086511A1, “SURVIVAL, DIFFERENTIATION AND STRUCTURAL INTEGRATION OF HUMAN NEURAL STEM CELLS GRAFTED INTO THE ADULT RAT SPINAL CORD” (NEURALSTEM, INC., priority 2005, published 2015).

Tests used:
[1] = test system: SOD1-G93A mice grafted with human NSCs; test: Graft rejection and human NSC graft survival under immunosuppressive regimens in SOD1-G93A mice (ICC for HNu, CD4, CD8, DX5, Iba-1); conditions: compared to the double immunosuppressive regimen
Experimental: Thus, five experimental groups were given different immunosuppressive treatments: the first group was treated with FK506 monotherapy (Prograf, Fujisawa Healthcare, Inc., Deerfield, Ill.) (2 μg/g/day, n=23); a second group was treated with a double immunosuppressive regimen combining FK506 and rapamycin (Calbiochem, La Jolla, Calif.) (1 μg/g/day each, n=21); a third group received triple immunosuppression with FK506, rapamycin, and MMF (CellCept, Roche, Nutley, N.J.) (1 μg/g/day each for FK506 and rapamycin, 100 μg/g/day for MMF, n=14); a fourth group was treated with CD4 antibodies (clone GK1.5, 20 μg/g/day, n=12); and a fifth group (n=10) was treated with FK506 plus rapamycin exactly as the second group, except that subjects were grafted with dead cells. Dead-cell grafts utilized cells that were exposed to repeated freezing-thawing and served to control for the potential therapeutic effects of immunosuppressants themselves on motor neuron disease. […] Males and females were randomly admixed in the various experimental groups to minimize a systemic effect of gender on disease progression and treatment response. […]

SOD1-G93A mice = test: Clinical outcomes (disease onset, life span, motor score) in SOD1-G93A mice grafted with human NSCs; conditions: SOD1-G93A mice grafted with live NSCs, by immunosuppressive regimen
Experimental: Thus, five experimental groups were given different immunosuppressive treatments: the first group was treated with FK506 monotherapy (Prograf, Fujisawa Healthcare, Inc., Deerfield, Ill.) (2 μg/g/day, n=23); a second group was treated with a double immunosuppressive regimen combining FK506 and rapamycin (Calbiochem, La Jolla, Calif.) (1 μg/g/day each, n=21); a third group received triple immunosuppression with FK506, rapamycin, and MMF (CellCept, Roche, Nutley, N.J.) (1 μg/g/day each for FK506 and rapamycin, 100 μg/g/day for MMF, n=14); a fourth group was treated with CD4 antibodies (clone GK1.5, 20 μg/g/day, n=12); and a fifth group (n=10) was treated with FK506 plus rapamycin exactly as the second group, except that subjects were grafted with dead cells. Dead-cell grafts utilized cells that were exposed to repeated freezing-thawing and served to control for the potential therapeutic effects of immunosuppressants themselves on motor neuron disease. […]
Clinical outcomes were studied on the same set of data originating from five concurrent treatment groups allowed to survive to terminal illness. […] Variance in disease onset and life span was analyzed with one-way ANOVA, followed by a Fisher LSD post hoc test. Variance in motor score curves was analyzed by repeated-measures ANOVA, followed by Fisher LSD testing. […]

In the case of `COc1c(C)c2c(c(O)c1C/C=C(\C)CCC(=O)OCCN1CCOCC1)C(=O)OC2` [MMF, mycophenolate mofetil], the “effect of adding MMF to FK506 plus rapamycin on graft survival and infiltration by CD4/CD8 (+) cells or microglia/macrophages” value [1] is reported as “no apparent effects”.
`C=CC[C@@H]1/C=C(\C)C[C@H](C)C[C@H](OC)[C@H]2O[C@@](O)(C(=O)C(=O)N3CCCC[C@H]3C(=O)O[C@H](/C(C)=C/[C@@H]3CC[C@@H](O)[C@H](OC)C3)[C@H](C)[C@@H](O)CC1=O)[C@H](C)C[C@@H]2OC` [FK506] gave an average disease onset (SOD1-G93A mice) of 13.2±1.8 weeks and a life span (SOD1-G93A mice) of 17.6±2.0 weeks.
